Assays:
[1] = molecular target: T1, Platelet-activating factor acetylhydrolase (Homo sapiens, UniProt Q13093); assay: (§1) Inhibition of Lp-PLA2 in human plasma LDL fractions using 2-thio platelet-activating factor as substrate by […] dye based spectrophotometry
T1 sequence (Q13093 whole entry): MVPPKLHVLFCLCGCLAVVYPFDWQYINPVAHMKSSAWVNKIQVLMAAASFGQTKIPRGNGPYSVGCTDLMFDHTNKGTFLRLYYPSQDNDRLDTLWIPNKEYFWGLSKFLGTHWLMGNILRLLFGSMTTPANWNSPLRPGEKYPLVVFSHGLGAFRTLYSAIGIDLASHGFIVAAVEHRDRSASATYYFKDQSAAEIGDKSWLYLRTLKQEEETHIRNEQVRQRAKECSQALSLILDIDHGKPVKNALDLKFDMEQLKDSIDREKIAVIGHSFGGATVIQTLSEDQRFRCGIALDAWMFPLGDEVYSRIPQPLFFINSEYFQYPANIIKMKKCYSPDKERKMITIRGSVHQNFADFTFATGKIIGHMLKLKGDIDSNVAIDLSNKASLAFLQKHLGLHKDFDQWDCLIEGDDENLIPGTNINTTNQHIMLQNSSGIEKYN

[2] = molecular target: T2, Platelet-activating factor acetylhydrolase (Homo sapiens) (UniProt Q13093); assay: as §1
T2 sequence (whole entry): T1 sequence (Q13093 whole entry)

Row | IC50 ([1]; read-out: IC50) [nM] | inhibition [2] | IC50 [1] | SMILES
1 | > 100 |  |  | CCN(CC)CCN(Cc1ccc(-c2ccc(C(F)(F)F)cc2)cc1)C(=O)COc1nc(SCc2ccc(F)cc2)nc2c1CCC2
2 | 52.4 | Dose-dependent effect |  | CC(C)(C)OC(=O)Cn1c(SCc2ccc(F)cc2)nc(=O)c2c1CCC2
3 |  |  | Not Active | CC(C)(C)OC(=O)COc1nc(SCc2ccc(F)cc2)nc2c1CCC2

From ChEMBL document CHEMBL4184211, “Regioselectivity of thiouracil alkylation: Application to optimization of Darapladib synthesis” (Bioorg Med Chem Lett, 2018)
